Test results from patent US20250230138A1, “COMPOUNDS HAVING A T-STRUCTURE FORMED BY AT LEAST FOUR CYCLES FOR USE IN THE TREATMENT OF CANCER AND OTHER INDICATIONS” (TheRas, Inc., priority 2022, published 2025).
Where two headings read alike, the source gives them in different places.

What was measured:
[1] = tested on: pAKT in BT474 cells; assay: Cell-based pAKT HTRF assay in BT474 cells; details: BT474 cells, 4 hr incubation, read-out: pAKT inhibition IC50 in BT474 cells
In short: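 BT474 cells in DMEM/10% FBS were treated the day after seeding with a 9-point, 3-fold compound series from 3 μM (0.25% DMSO) for 4 hr. Lysates were mixed with d2 and Eu cryptate anti-pAKT antibodies and incubated 4-24 h at room temperature. HTRF was read with excitation at 320 nm and emission at 615 nm.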

[2] = molecular target: Cys242 in human PIK3CA (157-299) (Homo sapiens (Human), UniProt P42336); assay: Covalent modification assay using MALDI-TOF MS; assay type: biochemical; details: 4 h reaction time point
Sequence of Cys242 in human PIK3CA (157-299) (P42336 157-299): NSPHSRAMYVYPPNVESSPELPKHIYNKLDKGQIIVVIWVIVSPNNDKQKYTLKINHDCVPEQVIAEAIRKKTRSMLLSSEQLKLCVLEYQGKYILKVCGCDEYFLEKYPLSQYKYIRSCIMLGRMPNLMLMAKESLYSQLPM
In short: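 PIK3CA (157-299) at 3.33 μM or 1 μM in 20 mM HEPES, 150 mM NaCl, 2 mM MgCl2, pH 7.3 was incubated with compound (from 10 mM DMSO stocks) in the dark at room temperature for 15 min, 30 min, 2 h or 4 h. Linear-mode MALDI-TOF peak heights gave percent modification.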

[3] = 3.33 μM protein target, 1:7.5 protein to compound ratio (compounds 1-852)
[4] = 1 μM protein target, 1:5 protein to compound ratio (compounds 853-1279)

## C=CC(=O)N1CCc2ccc(-c3nc(-c4cnc5c(c4)CNC(=O)C5)c4ccsc4c3-c3c(F)cc(F)cc3OCCOC)cc2C1 [Compound 579, (R)-3-(6-(2-acryloyl-1,2,3,4-tetrahydroisoquinolin-7-yl)-7-(2,4-difluoro-6-(2-methoxyethoxy)phenyl)thieno[3,2-c]pyridin-4-yl)-5,8-dihydro-1,6-naphthyridin-7(6H)-one]
[1]; Compounds 10-999
  IC50: 1000 to 3000 nM
[2]; [3]
  % of modification: D (percent of modification <25%)

## C=CC(=O)N1CCn2nc(-c3nc(-c4cnc5c(c4)CN(C(C)C)CC5)c4ccsc4c3-c3c(F)cc(F)cc3OCCOC)cc2C1C (stereo not drawn) [Compound 1093]
[1]; Compounds 1000-1279
  IC50: < 100 nM
[2]; [4]
  % of modification: A (percent of modification of PIK3CA protein ≥75%)

## C=CC(=O)N1Cc2cc(-c3nc(-c4ccc5c(c4)CCNC5=O)c4ccsc4c3-c3c(F)cc(F)cc3OCCO)nn2CC1C (stereo not drawn) [Compound 907]
[1]; Compounds 10-999
  IC50: < 100 nM
[2]; [4]
  % of modification: A (percent of modification of PIK3CA protein ≥75%)

## C=CC(=O)N1Cc2cc(-c3nc(-c4cnc(C)nc4)c4ccsc4c3-c3c(F)cc(F)cc3OC[C@@H](C)O)nn2C[C@H]1C [Compound 757]
[1]; Compounds 10-999
  IC50: < 100 nM
[2]; [3]
  % of modification: A (percent of modification of PIK3CA protein ≥75%)

## C=CC(=O)N1CCC(n2cc(-c3nc(-c4ccc5c(c4)CCNC5)c4ccsc4c3-c3ccc(F)cc3C#N)cn2)CC1 [Compound 93]
[1]; Compounds 10-999
  IC50: > 3000 nM
[2]; [3]
  % of modification: C (25%≤percent of modification <50%)

## C=CC(=O)N1CCc2ccc(-c3nc(-c4ccc5c(c4)CNC(=O)C5)c4ccsc4c3-c3ccc(F)cc3OC)cc2C1 [Compound 80]
[1]; Compounds 10-999
  IC50: 100 to 1000 nM
[2]; [3]
  % of modification: A (percent of modification of PIK3CA protein ≥75%)

## C=CC(=O)N1CCn2nc(-c3nc(-c4ccc5nncn5c4)c4ccsc4c3-c3c(F)cc(F)cc3OCCO)cc2[C@H]1C [Compound 892]
[1]; Compounds 10-999
  IC50: < 100 nM
[2]; [4]
  % of modification: A (percent of modification of PIK3CA protein ≥75%)

## C=CC(=O)N1CCc2nc(-c3nc(-c4ccc(=O)n(C)c4)c4ccsc4c3-c3ccc(F)cc3OCCOC)sc2C1 [Compound 164]
[1]; Compounds 10-999
  IC50: < 100 nM
[2]; [3]
  % of modification: A (percent of modification of PIK3CA protein ≥75%)

## C=CC(=O)N1CCc2nc(-c3nc(-c4ccc5c(c4)CCNC5)c4ccsc4c3-c3ccc(F)cc3OC(F)F)sc2C1 [Compound 215]
[1]; Compounds 10-999
  IC50: 100 to 1000 nM
[2]; [3]
  % of modification: A (percent of modification of PIK3CA protein ≥75%)

## C=CC(=O)N1CCc2ncc(-c3nc(-c4cccc(C#N)c4)c4ccsc4c3-c3c(F)cc(F)cc3OCCOC)cc2C1 [Compound 380]
[1]; Compounds 10-999
  IC50: < 100 nM
[2]; [3]
  % of modification: A (percent of modification of PIK3CA protein ≥75%)

## C=CC(=O)N1CCn2nc(-c3nc(-c4cnn(C)c4)c4ccsc4c3-c3ccc(F)cc3OC(F)F)nc2C1 [Compound 216]
[1]; Compounds 10-999
  IC50: 100 to 1000 nM
[2]; [3]
  % of modification: A (percent of modification of PIK3CA protein ≥75%)

## C=C(F)C(=O)N1CCn2nc(-c3nc(-c4cnc5c(c4)CNC5=O)c4ccsc4c3-c3c(F)cc(F)cc3OC(C)C)cc2C1 [Compound 356]
[1]; Compounds 10-999
  IC50: < 100 nM
[2]; [3]
  % of modification: A (percent of modification of PIK3CA protein ≥75%)

## C=CC(=O)N1Cc2cc(-c3nc(-c4cnn(C)c4)c4ccsc4c3-c3c(F)cc(F)cc3OCCO)nn2C[C@H]1C [Compound 674]
[1]; Compounds 10-999
  IC50: < 100 nM
[2]; [3]
  % of modification: A (percent of modification of PIK3CA protein ≥75%)

## C=CC(=O)N1CC(n2cc(-c3nc(N4CCc5cn[nH]c5C4)c4ccsc4c3-c3ccc(F)cc3OCCOC)cn2)C1 [Compound 166]
[1]; Compounds 10-999
  IC50: 100 to 1000 nM
[2]; [3]
  % of modification: A (percent of modification of PIK3CA protein ≥75%)

## C=CC(=O)N1Cc2cc(-c3nc(-c4cn(C)cn4)c4ccsc4c3-c3c(F)cc(F)cc3OC(C)C)nn2CC1C (stereo not drawn) [Compound 496]
[1]; Compounds 10-999
  IC50: < 100 nM
[2]; [3]
  % of modification: A (percent of modification of PIK3CA protein ≥75%)

## C=CC(=O)N1CCc2ccc(-c3nc(-c4ccc5c(c4)CCN(CC(F)F)CC5)c4ccsc4c3-c3c(F)cc(F)cc3OCCOC)cc2C1 [Compound 1271]
[1]; Compounds 1000-1279
  IC50: > 1000 nM
[2]; [4]
  % of modification: D (percent of modification <25%)

## C=CC(=O)N1CCc2ncc(-c3nc(-c4ccc5c(c4)CNC5=O)c4ccsc4c3-c3c(F)cc(F)cc3OC(C)C)cc2C1 [Compound 326]
[1]; Compounds 10-999
  IC50: < 100 nM
[2]; [3]
  % of modification: A (percent of modification of PIK3CA protein ≥75%)

## C=CC(=O)N1CCC(n2cc(-c3nc(-c4ccc5c(c4)CS(=N)(=O)C5)c4ccsc4c3-c3ccc(F)cc3OCCOC)cn2)CC1 (stereo not drawn) [Compound 94]
[1]; Compounds 10-999
  IC50: < 100 nM
[2]; [3]
  % of modification: A (percent of modification of PIK3CA protein ≥75%)

## C=CC(=O)N1CCn2nc(-c3nc(-c4ccc5c(c4)CCC5N(C)C)c4ccsc4c3-c3c(F)cc(F)cc3OCCOC)cc2C1C (stereo not drawn) [Compound 1155]
[1]; Compounds 1000-1279
  IC50: < 100 nM
[2]; [4]
  % of modification: A (percent of modification of PIK3CA protein ≥75%)

## C=CC(=O)N1CC(n2cc(-c3nc(-c4cnn(CF)c4)c4ccsc4c3-c3ccc(F)cc3OCCOC)cn2)C1 [Compound 236]
[1]; Compounds 10-999
  IC50: 100 to 1000 nM
[2]; [3]
  % of modification: A (percent of modification of PIK3CA protein ≥75%)

## C=CC(=O)N1Cc2cc(-c3nc(-c4ccc5c(c4)CCN(C)C5)c4ccsc4c3-c3c(F)cc(F)cc3OCC)nn2C(C)C1 (stereo not drawn) [Compound 485]
[1]; Compounds 10-999
  IC50: < 100 nM
[2]; [3]
  % of modification: A (percent of modification of PIK3CA protein ≥75%)

## C=CC(=O)N1CCn2nc(-c3nc(-c4ccc5cnncc5c4)c4ccsc4c3-c3c(F)cc(F)cc3OCC(C)O)cc2C1C (stereo not drawn) [Compound 678]
[1]; Compounds 10-999
  IC50: < 100 nM
[2]; [3]
  % of modification: A (percent of modification of PIK3CA protein ≥75%)

## C=CC(=O)N1CCc2nc(-c3nc(-c4cnn(C)c4)c4ccsc4c3-c3ccc(F)cc3OCC3CNC(=O)C3)sc2C1 (stereo not drawn) [Compound 187]
[1]; Compounds 10-999
  IC50: < 100 nM
[2]; [3]
  % of modification: A (percent of modification of PIK3CA protein ≥75%)

## C=CC(=O)N1CCc2nc(-c3nc(-c4ccc5c(c4)CCNCC5)c4ccsc4c3-c3ccc(F)cc3OCCOC)sc2C1 [Compound 121]
[1]; Compounds 10-999
  IC50: < 100 nM
[2]; [3]
  % of modification: A (percent of modification of PIK3CA protein ≥75%)

## C=CC(=O)N1Cc2cc(-c3nc(-c4ccc5nn(C)cc5c4)c4ccsc4c3-c3c(F)cc(F)cc3OC)nn2[C@@H](C)C1 [Compound 847]
[1]; Compounds 10-999
  IC50: < 100 nM
[2]; [3]
  % of modification: A (percent of modification of PIK3CA protein ≥75%)

## C=CC(=O)N1CCn2nc(-c3nc(-c4cncc(Cl)c4)c4ccsc4c3-c3ccc(F)cc3OCCOC)cc2C1 [Compound 203]
[1]; Compounds 10-999
  IC50: < 100 nM
[2]; [3]
  % of modification: A (percent of modification of PIK3CA protein ≥75%)

## C=CC(=O)N1CCn2nc(-c3nc(N4CC5(CCNC(=O)C5)C4)c4ccsc4c3-c3c(F)cc(F)cc3OCCOC)cc2C1C (stereo not drawn) [Compound 1088]
[1]; Compounds 1000-1279
  IC50: 100 to 1000 nM
[2]; [4]
  % of modification: B (50%<percent of modification <75%)

## C=CC(=O)N1CC(n2cc(-c3nc(N4CCC5(CC4)COC5)c4ccsc4c3-c3ccc(F)cc3OCCOC)cn2)C1 [Compound 122]
[1]; Compounds 10-999
  IC50: 100 to 1000 nM
[2]; [3]
  % of modification: A (percent of modification of PIK3CA protein ≥75%)

## C=CC(=O)N1Cc2cc(-c3nc(C45CC(C(=O)NC)(C4)C5)c4ccsc4c3-c3c(F)cc(F)cc3OCCOC)nn2C[C@H]1C [Compound 1071, 3-((S)-6-((R)-5-acryloyl-6-methyl-4,5,6,7-tetrahydropyrazolo[1,5-a]pyrazin-2-yl)-7-(2,4-difluoro-6-(2-methoxyethoxy)phenyl)thieno[3,2-c]pyridin-4-yl)-N-methylbicyclo[1.1.1]pentane-1-carboxamide]
[1]; Homo sapiens, BT-474, Compounds 1000-1279
  IC50: < 100 nM
[2]; [4]
  % of modification: B (50%<percent of modification <75%)

## C=CC(=O)N1CC[C@H](n2cc(-c3nc(-c4ccc5c(c4)CCC(O)C5)c4ccsc4c3-c3ccc(F)cc3OCCOC)cn2)C1 (stereo partly drawn) [Compound 64]
[1]; Compounds 10-999
  IC50: < 100 nM
[2]; [3]
  % of modification: A (percent of modification of PIK3CA protein ≥75%)

## C=CC(=O)N1CCn2nc(-c3nc(-c4ccc5c(c4)CCN(C(C)C)C5)c4ccsc4c3-c3ccc(F)cc3OC(F)F)cc2C1 [Compound 244]
[1]; Compounds 10-999
  IC50: < 100 nM
[2]; [3]
  % of modification: A (percent of modification of PIK3CA protein ≥75%)

## C=CC(=O)N1CCn2nc(-c3nc(-c4cnc5c(c4)CN(C)CC5(F)F)c4ccsc4c3-c3c(F)cc(F)cc3OCCO)cc2C1C (stereo not drawn) [Compound 1196]
[1]; Compounds 1000-1279
  IC50: < 100 nM
[2]; [4]
  % of modification: A (percent of modification of PIK3CA protein ≥75%)

## CC#CC(=O)N1CCn2nc(-c3nc(-c4ccc5c(cnn5C)c4)c4ccsc4c3-c3c(F)cc(F)cc3OCCOC)cc2[C@H]1C [Compound 1227]
[1]; Compounds 1000-1279
  IC50: 100 to 1000 nM
[2]; [4]
  % of modification: B (50%<percent of modification <75%)
